Laboratory results published in patent US20240262815A1, “HETEROARYL DERIVATIVE, METHOD FOR PREPARING SAME, AND PHARMACEUTICAL COMPOSITION COMPRISING SAME AS ACTIVE INGREDIENT” (VORONOI INC., priority 2021, published 2024).

Tested on: SK-BR-3 cancer cells
Assay: Inhibitory activity against proliferation of SK-BR-3 cancer cells (CellTiter-Glo)
Type: cell-based
Conditions: ErbB2-overexpressing SK-BR-3 cells, 120 hours after treatment
Protocol: To evaluate the inhibitory activity of a compound according to the present invention against the proliferation of ErbB2-overexpressing cancer cells, the following experiment were performed.
10% FBS-added McCOY'S 5A was used for SK-BR-3 cancer cells. 20% FBS-added RPMI-1640 was used for BT-474 cancer cells. Transduced Ba/F3 cells were cultured in a RPMI-1640 medium to which 1 μg/ml puromycin (Invitrogen) was added.
48 hours before compound treatment, each type of the SK-BR-3 and BT-474 cells were seeded at 5,000 cells/well in a white clear bottom 96 well plate (Corning). The compound was diluted in dimethyl sulfoxide (SK-BR-3: 3-fold dilution, a total of 12 concentrations, BT-474: […], a total of 12 concentrations) and injected at 1 μl to have the final concentration of 0.2 nM to 5 μM. As for measurement of live cells, 120 hours after treatment with the compound, a CellTiter-Glo luminescent cell-viability reagent (Promega) was used to store the cells at room temperature for 10 minutes, followed by measurement of luminescence using a reader (SynergyNeo, Biotek). Each test was repeated three times.
The result values were calculated as a cell growth rate (%) compared to the control group. A graph was plotted using the GraphPad Prism version 8.3.0 program, and GI50 values were calculated.

| SMILES | GI50 (Homo sapiens, SK-BR-3, 120 h) [nM] | GI50 [nM] |
| --- | --- | --- |
| C=CC(=O)Nc1cc(Nc2cc(N3OCC[C@@H]3c3cc(F)cc(-c4cccnc4)c3)ncn2)c(OC)cc1N1CCN(C)CC1 [Example 177, (R)-N-(5-((6-(3-(3-fluoro-5-(pyr-idin-3-yl)phenyl)-isoxazolidin-2-yl)-pyrimidin-4-yl)-amino)-4-meth-oxy-2-(4-methyl-piperazin-1-yl)-phenyl)acrylamide] | 50 to 500 | – |
| C=CC(=O)Nc1cc(Nc2cc(N3OCC[C@@H]3c3cc(F)cc(-c4cccnc4)c3)ncn2)c(OC)cc1N(C)CCN(C)C [Example 178, (R)-N-(2-((2-(dimethylamino)-ethyl)(methyl)-amino)-5-((6-(3-(3-fluoro-5-(pyr-idin-3-yl)phenyl)-isoxazolidin-2-yl)-pyrimidin-4-yl)-amino)-4-methoxy-phenyl)acrylamide] | < 50 | – |
| C=CC(=O)Nc1cc(Nc2cc(N3OCCC3c3cccc(-c4cccs4)c3)ncn2)c(OC)cc1N1CCC(N2CCN(C3CC3)CC2)CC1 (centres unmarked) [Example 182, N-(2-(4-(4-cyclo-propylpiperazin-1-yl)piperidin-1-yl)-4-methoxy-5-((6-(3-(3-(thiophen-2-yl)phenyl)isoxazol-idin-2-yl)pyrim-idin-4-yl)amino)-phenyl)acrylamide] | < 50 | – |
| C=CC(=O)Nc1cc(Nc2cc(N3OCC[C@@H]3c3cccc(C(=O)OC4CCCCC4)c3)ncn2)c(OC)cc1N1CCC(N2CCN(C3CC3)CC2)CC1 [Example 185, cyclohexyl (R)-3-(2-(6-((5-acryl-amido-4-(4-(4-cyclopropylpiper-azin-1-yl)piper-idin-1-yl)-2-meth-oxyphenyl)amino)-pyrimidin-4-yl)-isoxazolidin-3-yl)-benzoate] | 50 to 500 | – |
| C=CC(=O)Nc1cc(Nc2cc(N3OCC[C@@H]3c3cccc(-c4ccccc4)c3)ncn2)c(OC)cc1N1CCC(N2CCN(C3CC3)CC2)CC1 [Example 190, (R)-N-(5-((6-(3-([1,1′-biphenyl]-3-yl)isoxazolidin-2-yl)pyrimidin-4-yl)-amino)-2-(4-(4-cyclopropylpiper-azin-1-yl)piper-idin-1-yl)-4-meth-oxyphenyl)acryl-amide] | < 50 | – |
| C=CC(=O)Nc1cc(Nc2cc(N3OCC[C@@H]3c3cc(F)cc(Oc4cccc(F)c4)c3)ncn2)c(OC)cc1N1CCN(C)CC1 [Example 191, (R)-N-(5-((6-(3-(3-fluoro-5-(3-fluoro-phenoxy)phenyl)-isoxazolidin-2-yl)-pyrimidin-4-yl)-amino)-4-meth-oxy-2-(4-methyl-piperazin-1-yl)-phenyl)acrylamide] | 50 to 500 | – |
| C=CC(=O)Nc1cc(Nc2cc(N3OCC[C@@H]3c3cc(F)cc(-c4ccsc4)c3)ncn2)c(OC)cc1N1CCN(C)CC1 [Example 193, (R)-N-(5-((6-(3-(3-fluoro-5-(thiophen-3-yl)phenyl)isox-azolidin-2-yl)pyr-imidin-4-yl)amino)-4-methoxy-2-(4-methylpiperazin-1-yl)phenyl)acryl-amide] | < 50 | – |
| C=CC(=O)Nc1cc(Nc2cc(N3OCC[C@@H]3c3cc(F)cc(-c4ccsc4)c3)ncn2)c(OC)cc1N(C)CCN(C)C [Example 194, (R)-N-(2-((2-(dimethylamino)-ethyl)(methyl)-amino)-5-((6-(3-(3-fluoro-5-(thio-phen-3-yl)phenyl)-isoxazolidin-2-yl)-pyrimidin-4-yl)-amino)-4-methoxy-phenyl)acrylamide] | < 50 | – |
| C=CC(=O)Nc1cc(Nc2cc(N3OCC[C@@H]3c3cc(F)cc(OCc4ccccn4)c3)ncn2)c(OC)cc1N1CCN(C)CC1 [Example 195, (R)-N-(5-((6-(3-(3-fluoro-5-(pyr-idin-2-ylmethoxy)-phenyl)isoxazol-idin-2-yl)pyrim-idin-4-yl)amino)-4-methoxy-2-(4-methylpiperazin-1-yl)phenyl)-acrylamide] | < 50 | – |
| C=CC(=O)Nc1cc(Nc2cc(N3OCC[C@@H]3c3cc(F)cc(OCc4ccccn4)c3)ncn2)c(OC)cc1N(C)CCN(C)C [Example 196, (R)-N-(2-((2-(dimethylamino)-ethyl)(methyl)-amino)-5-((6-(3-(3-fluoro-5-(pyr-idin-2-ylmethoxy)-phenyl)isoxazol-idin-2-yl)pyrim-idin-4-yl)amino)-4-methoxyphen-yl)acrylamide] | < 50 | – |
| C=CC(=O)Nc1cc(Nc2cc(N3OCCC3c3cccc(-c4ccc5ncnn5c4)c3)ncn2)c(OC)cc1N1CCN(C)CC1 (centres unmarked) [Example 197, N-(5-((6-(3-(3-([1,2,4]triazolo-[1,5-a]pyridin-6-yl)phenyl)isoxazol-idin-2-yl)pyrim-idin-4-yl)amino)-4-methoxy-2-(4-methylpiperazin-1-yl)phenyl)-acrylamide] | < 50 | – |
| C=CC(=O)Nc1cc(Nc2cc(N3OCCC3c3cccc(-c4ccc5ncnn5c4)c3)ncn2)c(OC)cc1N(C)CCN(C)C (centres unmarked) [Example 198, N-(5-((6-(3-(3-([1,2,4]triazolo-[1,5-a]pyridin-6-yl)phenyl)isoxazol-idin-2-yl)pyrim-idin-4-yl)amino)-2-((2-(dimethyl-amino)ethyl)-(methyl)amino)-4-methoxyphen-yl)acrylamide] | < 50 | – |
| C=CC(=O)Nc1cc(Nc2cc(N3OCC[C@@H]3c3cc(F)cc(Oc4cccc(F)c4)c3)ncn2)c(OC)cc1N(C)CCN(C)C [Example 199, (R)-N-(2-((2-(dimethylamino)-ethyl)(methyl)-amino)-5-((6-(3-(3-fluoro-5-(3-fluorophenoxy)-phenyl)isoxazol-idin-2-yl)pyrim-idin-4-yl)amino)-4-methoxyphen-yl)acrylamide] | 50 to 500 | – |
| C=CC(=O)Nc1cc(Nc2cc(N3OCCC3c3cccc(-c4cnc5ccnn5c4)c3)ncn2)c(OC)cc1N(C)CCN(C)C (centres unmarked) [Example 202, N-(2-((2-(dimethyl-amino)ethyl)-(methyl)amino)-4-methoxy-5-((6-(3-(3-(pyrazolo[1,5-a]pyrimidin-6-yl)-phenyl)isoxazol-idin-2-yl)pyrim-idin-4-yl)amino)-phenyl)acrylamide] | < 50 | – |
| C=CC(=O)Nc1cc(Nc2cc(N3OCCC3c3cccc(-c4cccn5ccnc45)c3)ncn2)c(OC)cc1N1CCN(C)CC1 (centres unmarked) [Example 203, N-(5-((6-(3-(3-(imidazo[1,2-a]-pyridin-8-yl)phen-yl)isoxazolidin-2-yl)pyrimidin-4-yl)amino)-4-meth-oxy-2-(4-methyl-piperazin-1-yl)-phenyl)acrylamide] | < 50 | – |
| C=CC(=O)Nc1cc(Nc2cc(N3OCCC3c3cccc(-c4cccn5ccnc45)c3)ncn2)c(OC)cc1N(C)CCN(C)C (centres unmarked) [Example 204, N-(2-((2-(dimeth-ylamino)ethyl)-(methyl)amino)-5-((6-(3-(3-(imidazo-[1,2-a]pyridin-8-yl)phenyl)isoxazol-idin-2-yl)pyrim-idin-4-yl)amino)-4-methoxyphen-yl)acrylamide] | < 50 | – |
| C=CC(=O)Nc1cc(Nc2cc(N3OCC[C@@H]3c3cc(F)cc(-c4cccc(F)c4)c3)ncn2)c(OC)cc1N1CCC(N2CCN(C3CC3)[C@H](C)C2)CC1 [Example 206] | 500 to 5000 | – |
| C=CC(=O)Nc1cc(Nc2cc(N3OCC[C@@H]3c3cc(F)cc(-c4cccc(F)c4)c3)ncn2)c(OC)cc1N1CCC(N2CCOCC2)CC1 [Example 207, (R)-N-(5-((6-(3-(3′,5-difluoro-[1,1′-biphenyl]-3-yl)isoxazolidin-2-yl)pyrimidin-4-yl)-amino)-4-methoxy-2-(4-morpholino-piperidin-1-yl)-phenyl)acrylamide] | < 50 | – |
| C=CC(=O)Nc1cc(Nc2cc(N3OCC[C@@H]3c3cc(F)cc(-c4cccc(F)c4)c3)ncn2)c(OC)cc1N(C)CCN(C)C [Example 208, (R)-N-(5-((6-(3-(3′,5-difluoro-[1,1′-biphenyl]-3-yl)-isoxazolidin-2-yl)-pyrimidin-4-yl)-amino)-2-((2-(dimethylamino)-ethyl)(methyl)-amino)-4-methoxy-phenyl)acrylamide] | < 50 | – |
| C=CC(=O)Nc1cc(Nc2cc(N3OCC[C@@H]3c3cc(F)cc(-c4cccc5ncnn45)c3)ncn2)c(OC)cc1N1CCN(C)CC1 [Example 209, (R)-N-(5-((6-(3-(3-([1,2,4]triazolo-[1,5-a]pyridin-5-yl)-5-fluorophen-yl)isoxazolidin-2-yl)pyrimidin-4-yl)-amino)-4-methoxy-2-(4-methylpiper-azin-1-yl)phenyl)-acrylamide] | < 50 | – |
| C=CC(=O)Nc1cc(Nc2cc(N3OCC[C@@H]3c3cc(F)cc(-c4cccc5ncnn45)c3)ncn2)c(OC)cc1N(C)CCN(C)C [Example 210, (R)-N-(5-((6-(3-(3-([1,2,4]triazolo-[1,5-a]pyridin-5-yl)-5-fluorophen-yl)isoxazolidin-2-yl)pyrimidin-4-yl)-amino)-2-((2-(dimethylamino)-ethyl)(methyl)-amino)-4-methoxy-phenyl)acrylamide] | < 50 | – |
| C=CC(=O)Nc1cc(Nc2cc(N3OCCC3c3cccc(-c4cccc(F)c4)c3)ncn2)c(OC)cc1N1CCN(C)CC1 (centres unmarked) [Example 211, N-(5-((6-(3-(3′-fluoro-[1,1′-biphenyl]-3-yl)-isoxazolidin-2-yl)-pyrimidin-4-yl)-amino)-4-methoxy-2-(4-methylpiper-azin-1-yl)phenyl)-acrylamide] | 50 to 500 | – |
| C=CC(=O)Nc1cc(Nc2cc(N3OCCC3c3cccc(-c4cccc(F)c4)c3)ncn2)c(OC)cc1N(C)CCN(C)C (centres unmarked) [Example 212, N-(2-((2-(dimeth-yl-amino)ethyl)-(methyl)amino)-5-((6-(3-(3′-fluoro-[1,1′-biphenyl]-3-yl)isoxazolidin-2-yl)pyrimidin-4-yl)amino)-4-meth-oxyphenyl)acryl-amide] | – | 50 to 500 |
